Source: PubChem BioAssay AID179 (DTP/NCI, 2004)
pEC50, pIC50: −log10 of the molar value. Calls of active or inactive are those of the source.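 Rule for the calls: active = compounds giving half or more protection of infected cells from virus-caused growth loss, again on retest; inactive = the rest.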

Tested on: CEM cells HIV-1 protection, formazan growth assay
Assay: NCI AIDS Antiviral Assay
Conditions: for pIC50: measured here: growth of uninfected CEM cells
Procedure, shortened: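 Human CEM cells, uninfected and HIV-1-infected, exposed to five drug concentrations; growth measured by soluble formazan assay and scored as percent protection from infection, with protecting compounds retested.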

Compound | outcome | pEC50 | pIC50
CN(COC(=O)c1ccccc1)c1nc(N(C)COC(=O)c2ccccc2)nc(N(C)COC(=O)c2ccccc2)n1 | inactive | – | –
CCN(CC)CCNC(=O)c1ccc(I)cc1 | – | < 3.70 | < 3.70
COC(=O)CC[N+]1([O-])CC1 | – | < 3.70 | < 3.70
COc1ccccc1NC(=O)CC(=O)n1nc(C)c(N=Nc2ccccc2F)c1C | inactive | – | –
COc1ccc(/C=N/NC(=O)c2ccc(O)c(CN(C)C)c2)cc1 | – | < 3.70 | < 3.70
CC(=O)[O-].O=S(=O)(Nc1ncccn1)c1ccc(N=Cc2ccccc2O)cc1.O=S(=O)(Nc1ncccn1)c1ccc(N=Cc2ccccc2O)cc1.[Co+2] | – | < 3.70 | 4.40
c1ccc2c3c([nH]c2c1)[C@@H]1CCN2CCC[C@@H]2N1CC3 | – | < 3.70 | 4.01
O=c1cnn(C2OC(CO)C(O)C(F)C2O)c(=O)[nH]1 (configuration not stated) | – | < 3.70 | < 3.70
COc1cc(/C=C2\CCC/C(=C\c3cc(OC)c(O)c(OC)c3)C2=O)cc(OC)c1O | – | < 3.70 | 6.03
N#CCCN(CCO)CCO | – | < 3.70 | < 3.70
O=c1oc2ccccc2cc1P(=O)(O)O | – | < 3.70 | 5.05
C/C(=C\CNc1ncnc2c1ncn2C1CCCCO1)COP(=O)(O)O (configuration not stated) | inactive | – | –
C=C(CCC/C(C)=C/C=C/[C@]1(C)CCCc2ccoc21)CC(=O)O | – | 4.79 | < 3.70
CCCCCCCCCCCCCCCC(=O)Nc1ccn(C2CCC(COP(=O)(O)OCC3CCC(n4cnc5c(=O)[nH]cnc54)O3)O2)c(=O)n1 (configuration not stated) | – | 6.12 | < 4.00
CSc1nc2nc(C)c(C)nc2c(=O)[nH]1 | – | < 2.95 | < 2.95
CCOc1nc(C(=O)O)cc2ccsc12 | – | < 3.23 | 3.30
COc1ccc(/C=N/NC(=O)CSc2nc(-c3ccccc3)c(-c3ccccc3)[nH]2)cc1OC | – | < 4.26 | 4.50
COc1cc(C2c3cc4c(cc3OC(N3CCCC3)C2C)OCO4)cc(OC)c1O (configuration not stated) | – | < 3.70 | 5.22
O=C(/C=C/c1ccc(O)cc1)OCC1OC(Oc2cc(O)c3c(c2)OC(c2ccc(O)cc2)CC3=O)C(O)C(O)C1O (configuration not stated) | – | < 4.29 | 4.56
CC1(C)CNC[C@@](C)(OCc2ccccc2)C(=O)[N-]C(C)(C)CNC[C@@](C)(OCc2ccccc2)C(=O)[N-]1.[Ni+2] | – | < 3.70 | 3.98
CN(/N=C/c1ccccn1)C1=NCCN1 | – | < 3.70 | < 3.70
Nc1cc(-c2ccc(Cl)cc2)nn1-c1nnc2c(n1)[nH]c1ccccc12 | – | < 3.70 | < 3.70
CC(=O)OC12c3ccccc3C1CCCCCC21OCCCO1 (configuration not stated) | – | < 3.70 | < 3.70
CC1(C)OC(=O)C(=Cc2ccc(Br)cc2)C(=O)O1 | – | < 3.38 | 3.59
COc1cccc(C2SCC(=O)N2c2ccc(-n3c(-c4ccccc4)nc4ccccc4c3=O)cc2)c1OC (configuration not stated) | – | < 3.70 | < 3.70

Compound | outcome | pEC50 | pIC50
Nn1c(SCC(=O)O)nc2ccccc2c1=O | – | < 3.70 | < 3.70
CCOC(=O)c1c(Br)c(-c2ccc([N+](=O)[O-])cc2)c(Br)n1C | – | < 3.70 | 4.40
CCOC(=O)c1cc2c3c(c1)C(=O)CCN3CCC2=O | inactive | – | –
N#Cc1cc2c(n(C3OC(CO)C(O)C(O)C3O)c1=S)CCCCC2 (configuration not stated) | – | < 3.70 | < 3.70
CC(C)CN(C[C@@H](O)[C@H](Cc1ccccc1)NC(=O)[C@H](CC(N)=O)NC(=O)c1ccc2ccccc2n1)C(=O)NC(C)(C)C | active | – | 4.03
COc1ccc(CCn2c(=O)c3ccccc3n(C)c2=O)cc1 | – | < 4.08 | 4.49
Nc1ncnc2c1ncn2C(CO)OC(CO)CCP(=O)(O)O (configuration not stated) | – | < 4.00 | < 4.00
COC(=O)C1(Cc2ccccc2)Cc2c(C)ccc(C)c2C1=O (configuration not stated) | – | < 3.70 | < 3.70
CCc1ccccc1NC(=O)C1=C(C)NC(C)=C(C(=O)Nc2c(CC)cccc2CC)C1c1ccc2c(c1)OCO2 (configuration not stated) | – | < 4.47 | < 4.47
O=C1CCC(c2ccccc2)CCN1 (configuration not stated) | inactive | – | –
CCN(CC)c1cc2oc(=O)cc(C)c2cc1NC(=O)c1cc(N)cc(N)c1 | – | < 4.00 | 4.71
CC(=O)OC1CC2OC2(C)C2[C@H](O)C34O[C@@]3(C)C(=O)O[C@H]4/C=C(/C)C[C@H](OC(C)=O)[C@H](OC(C)=O)[C@@]12C (some centres not stated) | – | < 3.91 | 4.12
COc1ccc2c(c1)C(=O)C1(C2)[C@H](c2ccccc2)C2C(=O)c3cc(OC)ccc3C2[C@H]1c1ccccc1 (some centres not stated) | – | < 3.70 | 3.86
CCOC(=O)C(C/C(C)=C/c1ccccc1)C(=O)OCC | – | < 3.70 | 3.74
C[N+](C)(C)CC1CCCC(C[N+](C)(C)C)C1O (configuration not stated) | inactive | – | –
COc1cc(-c2oc3ccccc3c(=O)c2O)cc(OC)c1OC | – | < 3.70 | 4.10
C=C(Br)CNC(=O)CCC(=O)NCC(=C)Br | – | < 3.70 | < 3.70
CCCCCCCCCCCCCCCC(=O)Nc1ccn(C2CCC(COP(=O)(O)OCC3OC(n4cc(C)c(=O)[nH]c4=O)CC3F)O2)c(=O)n1 (configuration not stated) | – | 7.88 | 6.70
CC(CO)[C@H]1OC(=O)C=C2[C@@]13O[C@@H]3[C@H]1OC(=O)[C@@]3(C)[C@H]4O[C@H]4C[C@@]2(C)[C@@H]13 (some centres not stated) | – | < 5.70 | 6.11
CC1C[C@H](C)CC(C(O)CC2CC(=O)N(Cc3ccccc3)C(=O)C2)C1O (some centres not stated) | – | < 3.70 | < 3.70
C=CCN(CC=C)Cn1c(=S)sc2ccccc21 | – | < 3.70 | 3.85
COc1ccc(OC)c(/C=C2\CCc3ccccc3C2=O)c1 | – | < 4.75 | 5.54
COc1ccc(-c2nc(Sc3c([N+](=O)[O-])ncn3C)n[nH]2)cc1 | – | < 3.27 | 6.25
O=c1ccn(C(CO)OC(CO)CCP(=O)(O)O)c(=O)[nH]1 (configuration not stated) | – | < 3.70 | < 3.70
